Converted amounts (≈) assume the structure as drawn. The source made the active and inactive calls. The calls are words filed in the database; no cut-off is given here.
What was measured:
[1] = tested on: Escherichia coli; assay: Antibacterial activity against Escherichia coli ATCC 25922 after 18 hrs by CLSI based broth microdilution method; format: functional; details: ATCC 25922, 18 h
[2] = tested on: Escherichia coli; assay: Antibacterial activity against Escherichia coli ATCC 43837 after 18 hrs by CLSI based broth microdilution method; format: functional; details: ATCC 43837, 18 h
[3] = tested on: Klebsiella pneumoniae; assay: Antibacterial activity against Klebsiella pneumoniae ATCC 700603 after 18 hrs by CLSI based broth microdilution method; format: functional; details: Klebsiella pneumoniae, 700603, 18 h
[4] = tested on: Pseudomonas aeruginosa; assay: Antibacterial activity against Pseudomonas aeruginosa ATCC 27853 after 18 hrs by CLSI based broth microdilution method; format: functional; details: ATCC 27853, 18 h
[5] = tested on: Staphylococcus aureus; assay: Antibacterial activity against Staphylococcus aureus ATCC 25923 after 18 hrs by CLSI based broth microdilution method; format: functional; details: ATCC 25923, 18 h
[6] = tested on: Bacillus subtilis; assay: Antibacterial activity against Bacillus subtilis ATCC 23857 after 18 hrs by CLSI based broth microdilution method; format: functional; details: ATCC 23857, 18 h
[7] = Selectivity index, ratio of MHC10 for human RBC to geometric mean of peptide MIC for gram positive bacteria; format: toxicity; details: human red blood cells, read-out: Selectivity Index
[8] = Selectivity index, ratio of MHC10 for human RBC to geometric mean of peptide MIC for gram negative bacteria; format: toxicity; details: human red blood cells, read-out: Selectivity Index
[9] = tested on: Escherichia coli; assay: Potentiation of polymyxin B-induced antibacterial activity against Escherichia coli ATCC 25922 assessed as FICI after 18 hrs by checker board assay; format: functional
[10] = tested on: Klebsiella pneumoniae; assay: Potentiation of polymyxin B-induced antibacterial activity against Klebsiella pneumoniae ATCC 700603 assessed as FICI after 18 hrs by checker board assay; format: functional
[11] = tested on: Pseudomonas aeruginosa; assay: Potentiation of polymyxin B-induced antibacterial activity against Pseudomonas aeruginosa ATCC 27853 assessed as FICI after 18 hrs by checker board assay; format: functional
[12] = tested on: Escherichia coli; assay: Potentiation of rifampicin-induced antibacterial activity against Escherichia coli ATCC 25922 assessed as FICI after 18 hrs by checker board assay; format: functional
[13] = tested on: Pseudomonas aeruginosa; assay: Potentiation of rifampicin-induced antibacterial activity against Pseudomonas aeruginosa ATCC 27853 assessed as FICI after 18 hrs by checker board assay; format: functional
[14] = tested on: Escherichia coli; assay: Antibacterial activity against Escherichia coli ATCC 25922 at 0.5 times MIC incubated for 18 hrs measured for 15 passages by CLSI based broth microdilution method; format: functional, organism-based
[15] = tested on: Escherichia coli; assay: Antibiofilm activity against Escherichia coli ATCC 25922 after 24 hrs by crystal violet staining based assay; format: functional, organism-based
[16] = tested on: Staphylococcus aureus; assay: Antibiofilm activity against Staphylococcus aureus ATCC 25923 after 24 hrs by crystal violet staining based assay; format: functional, organism-based
[17] = tested on: Pseudomonas aeruginosa; assay: Antibiofilm activity against Pseudomonas aeruginosa ATCC 27853 after 24 hrs by crystal violet staining based assay; format: functional, organism-based
[18] = tested on: Escherichia coli; assay: Antibiofilm activity against Escherichia coli ATCC 25922 at 2 times MIC after 24 hrs by crystal violet staining based assay; format: functional, organism-based
[19] = tested on: Escherichia coli; assay: Antimicrobial activity against Escherichia coli ATCC 25922 at 1 mM preincubated for 6 hrs in presence of 2000 ug/ml trypsin and measured after 18 hrs by microplate reader analysis; format: functional, organism-based
[20] = tested on: Escherichia coli; assay: Ratio of MIC for Escherichia coli ATCC 25922 preincubated for 1 hr in presence of 10% mouse serum and measured after 18 hrs to MIC for antibacterial activity against Escherichia coli ATCC 25922 after 18 hrs; format: functional
[21] = tested on: Escherichia coli; assay: Ratio of MIC for Escherichia coli ATCC 25922 preincubated for 6 hrs in presence of 10% mouse serum and measured after 18 hrs to MIC for antibacterial activity against Escherichia coli ATCC 25922 after 18 hrs; format: functional
[22] = tested on: Escherichia coli; assay: Induction of inner membrane permeabilization in Escherichia coli ATCC 43837 assessed as increase in ONPG release at 4 times of MIC by ONPG dye based assay; format: organism-based
[23] = tested on: Escherichia coli; assay: Induction of inner membrane permeabilization in Escherichia coli ATCC 43837 assessed as increase in ONPG release at 1 to 2 times of MIC by ONPG dye based assay; format: organism-based
[24] = tested on: Escherichia coli; assay: Disruption of membrane integrity in Escherichia coli ATCC 25922 assessed as membrane damage by measuring PI fluorescence at 4 times of MIC incubated for 1 hr by PI dye based flow cytometric analysis (reference value: 1.35%); format: functional
[25] = tested on: Escherichia coli; assay: Disruption of membrane integrity in Escherichia coli ATCC 25922 assessed as membrane damage by measuring PI fluorescence at 2 times of MIC incubated for 1 hr by PI dye based flow cytometric analysis (reference value: 1.35%); format: functional
[26] = tested on: Escherichia coli; assay: Disruption of membrane integrity in Escherichia coli ATCC 25922 assessed as membrane damage by measuring PI fluorescence incubated for 1 hr by PI dye based flow cytometric analysis; format: functional, organism-based
[27] = tested on: Escherichia coli; assay: Induction of membrane disruption in Escherichia coli ATCC 25922 assessed as rough membrane surface at 4 times of MIC after 2 hrs by SEM analysis; format: functional, organism-based
[28] = tested on: Escherichia coli; assay: Induction of membrane disruption in Escherichia coli ATCC 25922 assessed as corrugated membrane surface at 4 times of MIC after 2 hrs by SEM analysis; format: functional, organism-based
[29] = tested on: Escherichia coli; assay: Induction of membrane disruption in Escherichia coli ATCC 25922 assessed as degeneration in membrane at 4 times of MIC after 2 hrs by SEM analysis; format: functional, organism-based
[30] = tested on: DNA; assay: Binding affinity to Escherichia coli ATCC 25922 genomic DNA after 30 mins by agarose gel electrophoresis; format: nucleic-acid assay
[31] = tested on: Escherichia coli; assay: Ratio of antibacterial activity against Escherichia coli ATCC 25922 in presence of NaCl to antibacterial activity against Escherichia coli ATCC 25922; format: functional
[32] = tested on: Escherichia coli; assay: Ratio of antibacterial activity against Escherichia coli ATCC 25922 in presence of KCl to antibacterial activity against Escherichia coli ATCC 25922; format: functional
[33] = tested on: Escherichia coli; assay: Ratio of antibacterial activity against Escherichia coli ATCC 25922 in presence of MgCl2 to antibacterial activity against Escherichia coli ATCC 25922; format: functional
[34] = tested on: Escherichia coli; assay: Ratio of antibacterial activity against Escherichia coli ATCC 25922 in presence of FeCl3 to antibacterial activity against Escherichia coli ATCC 25922; format: functional
[35] = tested on: Staphylococcus aureus; assay: Ratio of antibacterial activity against Staphylococcus aureus ATCC 25923 in presence of KCl to antibacterial activity against Staphylococcus aureus ATCC 25923; format: functional
[36] = tested on: Staphylococcus aureus; assay: Ratio of antibacterial activity against Staphylococcus aureus ATCC 25923 in presence of MgCl2 to antibacterial activity against Staphylococcus aureus ATCC 25923; format: functional
[37] = tested on: Staphylococcus aureus; assay: Ratio of antibacterial activity against Staphylococcus aureus ATCC 25923 in presence of FeCl3 to antibacterial activity against Staphylococcus aureus ATCC 25923; format: functional
[38] = tested on: Escherichia coli; assay: Induction of membrane disruption in Escherichia coli ATCC 25922 assessed as fracture in membrane at 4 times of MIC after 2 hrs by SEM analysis; format: functional, organism-based
[39] = tested on: Escherichia coli; assay: Induction of ROS generation in Escherichia coli ATCC 25922; format: functional, organism-based
[40] = tested on: Pseudomonas aeruginosa; assay: Antibiofilm activity against Pseudomonas aeruginosa ATCC 27853 at 0.25 to 2 times of MIC after 24 hrs by crystal violet staining based assay; format: functional, organism-based

Row | Structure (SMILES) | MIC [1] | MIC [2] | MIC [3] | MIC [4] | MIC [5] | MIC [6] | selectivity ratio [7] | selectivity ratio [8] | fractional inhibitory concentration index (FICI) [9] | fractional inhibitory concentration index (FICI) [10] | fractional inhibitory concentration index (FICI) [11] | fractional inhibitory concentration index (FICI) [12] | fractional inhibitory concentration index (FICI) [13] | Activity [14] | inhibition [15] | inhibition [16] | inhibition [17] | inhibition [18] | Activity [19] | Ratio [20] | also measured
1 | CCCCCCCCCCCC(=O)NCC(=O)N[C@@H](CC(C)C)C(=O)N[C@@H](CC(C)C)C(=O)N[C@H](CCCCN)C(=O)N[C@@H](CCCNC(=N)N)C(=O)N[C@H](C(=O)N[C@H](CCCCN)C(=O)N[C@H](C(=O)N[C@@H](CC(C)C)C(=O)N[C@@H](CC(C)C)C(N)=O)[C@@H](C)O)[C@@H](C)CC | 16 µM (≈ 21.4 µg/mL) | 16 µM (≈ 21.4 µg/mL) | 8 µM (≈ 10.7 µg/mL) | 16 µM (≈ 21.4 µg/mL) | 4 µM (≈ 5.34 µg/mL) | 2 µM (≈ 2.67 µg/mL) | 2.18 | 1.14 | 0.1875 | 0.3125 | 0.1875 | 0.5625 | 0.3125 | Active | Dose-dependent effect | Dose-dependent effect | Dose-dependent effect | Active | Active | 1 | Ratio [21]: 2; Activity [22]: Active; Activity [23]: Active; Activity [24]: 94.7%; Activity [25]: 60.8%; Activity [26]: Dose-dependent effect; Activity [27]: Active; Activity [28]: Active; Activity [29]: Active; Activity [30]: Dose-dependent effect; Ratio [31]: 2 - 4; Ratio [32]: 2 - 4; Ratio [33]: 2 - 4; Ratio [34]: 2 - 4; Ratio [35]: 2 - 4; Ratio [36]: 2 - 4; Ratio [37]: 2 - 4; Activity [38]: Active; Activity [39]: inactive
2 | CCCCCCCC(=O)NCC(=O)N[C@@H](CC(C)C)C(=O)N[C@@H](CC(C)C)C(=O)N[C@H](CCCCN)C(=O)N[C@@H](CCCNC(=N)N)C(=O)N[C@H](C(=O)N[C@H](CCCCN)C(=O)N[C@H](C(=O)N[C@@H](CC(C)C)C(=O)N[C@@H](CC(C)C)C(N)=O)[C@@H](C)O)[C@@H](C)CC | 64 µM (≈ 81.9 µg/mL) | 32 µM (≈ 41 µg/mL) | 64 µM (≈ 81.9 µg/mL) | 8 µM (≈ 10.2 µg/mL) | 32 µM (≈ 41 µg/mL) | 4 µM (≈ 5.12 µg/mL) | 15.4 | 12.2 | 0.1875 | 0.0625 | 0.1875 | 0.0625 | 0.75 | Active | Dose-dependent effect | Dose-dependent effect | Dose-dependent effect | Active | Active | 1 | inhibition [40]: Active; Ratio [21]: 1; Activity [22]: Active; Activity [24]: 70.8%; Activity [25]: 64.6%; Activity [26]: Dose-dependent effect; Activity [27]: Active; Activity [28]: Active; Activity [29]: Active; Activity [30]: Dose-dependent effect; Ratio [31]: 2 - 4; Ratio [32]: 2 - 4; Ratio [33]: 2 - 4; Ratio [34]: 2 - 4; Ratio [35]: 2 - 4; Ratio [36]: 2 - 4; Ratio [37]: 2 - 4; Activity [38]: Active; Activity [39]: inactive

— ChEMBL document CHEMBL4359906, “Design and synthesis of new N-terminal fatty acid modified-antimicrobial peptide analogues with potent in vitro biological activity” (Eur J Med Chem, 2019)
